Experimental findings from US7078540B1, “Substituted aromatic-ring compounds, process for producing the same, and use” (Takeda Pharmaceutical Company Limited, priority 1999, dated 2006) are described below.

The test system of experiment [1] is NO production by RAW264.7 cells. Description: Inhibitory activity on NO production in LPS/interferon-γ stimulated RAW264.7 cells. The following applies: LPS 5 ng/ml + interferon-γ 1 U/ml, overnight, nitrite in culture supernatant. It is filed as cell-based, mouse. As for the experimental part:
Using mouse macrophage cell line, RAW264.7 as iNOS inducible cells, percent inhibition of NO production by the test compound was measured. The test compound was dissolved in N,N-dimethylformamide to 10 mM and diluted with RPMI-1640 medium to 0.1 mM. Furthermore, it was prepared with a medium to make a final concentration from 10 μM to 10 nM by diluting 10-fold, and added to the culture. The day before the experiment, the cells were prepared with RPMI-1640 medium supplemented with heat-inactivated 10% fetal calf serum to a concentration of 5×10^5 cells/ml and plated to a 96-well plate by 1×10^5 cells/0.2 ml per well. After culturing at 37° C. under 5% CO2/95% air overnight, the medium was changed to RPMI-1640 medium supplemented with heat-inactivated 1% fetal calf serum. Thereto was added the prepared test compound, and LPS and interferon-γ were added to a final concentrations of 5 ng/ml and 1 U/ml, respectively. After incubation overnight, the concentration of nitrite ion (stable metabolite of NO) in the culture supernatant was measured and used as an index of NO production. The nitrite concentration was quantitatively measured by adding 20 μg/ml 2,3-diaminonaphtalene (DAN) by 25 μl to the culture supernatant (50 μl), incubating at room temperature for 10 min, adding 0.5N NaOH (25 μl) and measuring the fluorescence at 450 nm (excitation wavelength 365 nm).

Experiment [2] concerns blood NOx concentration. Description: Effect against increase in blood nitrogen oxide concentration in LPS-treated mice. The experiment is classed as in vivo, mouse. The following applies: female BALB/c mice, 10 mg/kg orally 1 h before LPS 10 mg/kg i.p., sera at 6 h after LPS, relative to control group. From the text:
When a biological defense response against infection and the like, immunopathy and the like causes NO production in the body, it is quickly metabolized into nitrous acid and nitric acid, whereby blood nitrogen oxide concentration (NOx) increases. Using test animals, the effect of the test compound against increase in blood NOx concentration was examined.
Female BALB/c mice (7-week-old) were divided into 6–8 mice per group. For the test compound group, the test compound was suspended in 0.5% aqueous methylcellulose solution and 10 mg/kg thereof was orally administered. For the control group, a solvent was similarly administered. One hour later, LPS (10 mg/kg) was intraperitoneally administered to the test compound group and the control group. At 6 h after LPS administration, blood was drawn and nitrate ion+nitrite ion concentration in sera was measured. The nitrate ion was converted to nitrous acid ion with nitrate reductase and quantitatively measured as a total nitrite ion concentration by fluorescence method using the aforementioned DAN.

For experiment [3], the system named is IL-1β production by human monocyte cell line P31/FUJ. Description: Inhibitory activity on IL-1β production in P31/FUJ cells. The following applies: PMA pretreated, LPS 100 ng/ml + interferon-γ 10 U/ml, overnight. It is filed as cell-based. As for the experimental part:
(§1) Using human monocyte cell line P31/FUJ (JCRB0091, establisher: Fujioka, obtained from the Human Science Research Resource Bank), the percent inhibition of cytokine production by the test compound was measured. The test compound was dissolved in N,N-dimethylformamide to 10 mM and diluted with RPMI-1640 medium to 0.1 mM. Furthermore, it was prepared with a medium to make a final concentration from 10 μM to 10 nM by diluting 10-fold, and added to the culture. The day before the experiment, the cells were prepared with RPMI-1640 medium supplemented with 10% fetal calf serum to a concentration of 2×10^6 cells/ml and plated to a 96-well plate by 2×10^5 cells/0.1 ml per well. The above-mentioned medium (0.1 ml) supplemented with 40 nM phorbol 12-myristate 13-acetate (PMA) was added and the mixture was cultured at 37° C. under 5% CO2/95% air overnight. The cells were washed with the above-mentioned medium to remove PMA and the prepared test compound was added, and LPS and interferon-γ were added to a final concentrations of 100 ng/ml and 10 U/ml, respectively. After culturing overnight, the concentration of TNF-α and IL-1β in the culture supernatant was measured. For quantitative determination of each cytokine, a quantitative determination kit by Amersham was used.

The test system of experiment [4] is TNF-α production by human monocyte cell line P31/FUJ. The experiment is described as follows: Inhibitory activity on TNF-α production in P31/FUJ cells. It is filed as cell-based. The following applies: PMA pretreated, LPS 100 ng/ml + interferon-γ 10 U/ml, overnight. As for the experimental part:
as §1

[5] abbreviates: Mus musculus, RAW264.7, RAW264.7 cells.

Regarding `CCOC(=O)C1=CCCCC1S(=O)(=O)Cc1ccccc1` (stereo not shown) [Compound 1, ethyl 6-(benzylsulfonyl)-1-cyclohexene-1-carboxylate], the IC50 in experiment [1] (setting [5]) was found to be 240 nM.

In the case of `CCOC(=O)C1=CCCCC1S(=O)(=O)Cc1ccc(OC)cc1` (stereo not shown) [Compound 2, ethyl 6-[(4-methoxybenzyl)sulfonyl]-1-cyclohexene-1-carboxylate], the IC50 in experiment [1] (setting [5]) is 3200 nM.

Take `CCOC(=O)C1=CCCCC1S(=O)(=O)Cc1ccc(F)cc1F` (stereo not shown) [Compound 3, ethyl 6-[(2,4-difluorobenzyl)sulfonyl]-1-cyclohexene-1-carboxylate]: in experiment [1] (setting [5]), the IC50 was 47 nM.

On to `CCOC(=O)C1=CCCCC1S(=O)(=O)Cc1ccc(F)cc1Cl` (stereo not shown) [Compound 4, ethyl 6-[(2-chloro-4-fluorobenzyl)-sulfonyl]-1-cyclohexene-1-carboxylate], for which the “Blood NOx inhibition (%)” value in experiment [2] is recorded as 62%. Besides, the IC50 in experiment [3] came to 580 nM; in experiment [4] (Homo sapiens, P31-FUJ), 200 nM; in experiment [1] (RAW264.7 cells) it was 29 nM.

`CCOC(=O)C1=CCCCC1S(=O)(=O)Cc1ccc(F)cc1Cl` (stereo not drawn) [Compound 5, ethyl (−)-6-[(2-chloro-4-fluorobenzyl)sulfonyl]-1-cyclohexene-1-carboxylate]: the IC50 in experiment [1] (RAW264.7 cells) came to 1000 nM.

In the case of `CCOC(=O)C1=CCCCC1S(=O)(=O)Cc1ccc(F)cc1Cl` (stereo not drawn) [Compound 6, ethyl (+)-6-[(2-chloro-4-fluorobenzyl)sulfonyl]-1-cyclohexene-1-carboxylate], the concentration for half-maximal inhibition (IC50) came out at 230 nM in experiment [3], 150 nM in experiment [4] and 9.3 nM in experiment [1] (RAW264.7 cells).

With `CCOC(=O)C1=CCOCC1S(=O)(=O)Nc1ccc(F)cc1F` (stereo not shown) [Compound 7, ethyl 3-[(2,4-difluorophenyl)-sulfamoyl]-3,6-dihydro-2H-pyran-4-carboxylate], the IC50 in experiment [1] (setting [5]) amounted to 18 nM.

As to `CCOC(=O)C1=CCOCC1S(=O)(=O)Nc1ccc(F)cc1Cl` (stereo not shown) [Compound 8, ethyl 3-[(2-chloro-4-fluorophenyl)sulfamoyl]-3,6-dihydro-2H-pyran-4-carboxylate], the “Blood NOx inhibition (%)” value in experiment [2] is 80%. For the same compound, the concentration for half-maximal inhibition (IC50) in experiment [3] (Homo sapiens, P31-FUJ) turned out to be 11 nM; in experiment [4] (Homo sapiens, P31-FUJ), 20 nM; in experiment [1] (setting [5]), 3.1 nM.
